In PubChem BioAssay AID434987 (Southern Research Specialized Biocontainment Screening …, 2010):
Activity calls are given as the source filed them. No rule for the calls is given here.

System: M. tuberculosis H37Rv growth inhibition with meropenem
Assay: dose response, H37Rv, with and without meropenem (AID 434987);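 also: growth over 7 days at 37 °C before Alamar Blue read on day 9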
[1] = M. tuberculosis H37Rv growth inhibition, measured here: IC50 without meropenem
[2] = M. tuberculosis H37Rv growth inhibition, measured here: IC90 without meropenem
[3] = measured here: IC90 with meropenem

Structure (SMILES)	IC50	IC50 [1] [µM]	IC90 [2] [µM]	IC90 [3] [µM]
COc1ccc(NC(=O)CN2CCN(C3c4ccccc4-c4ccccc43)CC2)c(OC)c1	> 100 µM (inactive)	> 100	> 100	> 100
CCOC(=O)/C(C#N)=C/c1ccc(OCC(=O)Nc2ccccc2)c(OC)c1	98.4 µM (inactive)	> 100	> 100	> 100
C#C[C@]1(O)CC[C@H]2[C@@H]3CCC4=C(CCC(=O)C4)[C@H]3CC[C@@]21C	> 100 µM (inactive)	> 100	> 100	> 100
COc1cc(/C=C/C(=O)OCC(=O)Nc2ccc(Cl)cn2)ccc1O	39.4 µM	> 100	> 100	> 100
Cc1cc(NC(=O)CSc2nc(C(C)C)nc3sc4c(c23)CCCC4)no1	> 100 µM (inactive)	> 100	> 100	> 100
CSc1ccc(-c2nnn(CC(=O)NCc3ccccc3)n2)cc1	15.8 µM	> 100	> 100	> 100
CCc1ccc(N2C(=O)c3sc4nnc(-c5ccccc5)c(=O)n4c3C2=O)cc1	> 100 µM (inactive)	> 100	> 100	> 100
Cn1nnnc1Sc1ncnc2scc(-c3cccc(F)c3)c12	15.4 µM	> 100	> 100	> 100
O=C(NCc1ccc2c(c1)OCO2)C(=O)NC1CCCCC1	> 100 µM (inactive)	> 100	> 100	> 100
O=C(COC(=O)C1CC1)NCc1ccccc1Cl	1.37 µM	> 100	> 100	> 100
O=C(Nc1c2c(nc3ccccc13)CCCC2)c1ccccc1F	42.6 µM (inactive)	74	> 100	> 50
C=CCC(Nc1ccccc1)C12C=CC(O1)C(C(=O)OC)=C2C(=O)OC (stereo not drawn)	> 100 µM (inactive)	> 100	> 100	> 100
Cc1ccc(-c2cc(C(=O)N/N=C/C=C/c3ccccc3)n[nH]2)o1	> 100 µM (inactive)	> 100	> 100	> 100
CCOC(=O)CNC(=O)/C(=C\c1ccc(F)cc1)NC(=O)c1ccccc1	19.1 µM	55.5	> 100	35.1
O=C(Nc1nnc(-c2ccco2)o1)c1ccc(S(=O)(=O)N2CCOCC2)cc1	24.5 µM	63.5	> 100	> 100
Cc1ccc(S(=O)(=O)N[C@H](C(=O)OCn2nnc3ccccc3c2=O)C(C)C)cc1	> 100 µM (inactive)	> 100	> 100	> 100
Cc1noc(/C=C/Nc2ccc(F)cc2F)c1[N+](=O)[O-]	> 100 µM (inactive)	> 100	> 100	> 100
CCOC(=O)c1sc(NC(=O)CN2CCN(c3ccc(OC)cc3)CC2)nc1C	68.2 µM (inactive)	98.9	> 100	> 100
O=C(Nc1nc2ccccc2[nH]1)c1ccccc1F	> 100 µM (inactive)	> 100	> 100	> 100

Structure (SMILES)	IC50	IC50 [1] [µM]	IC90 [2] [µM]	IC90 [3] [µM]
CCOC(=O)c1c(NC(=O)C(=O)N/N=C/c2ccccc2OC)sc2c1CCCCC2	> 100 µM (inactive)	> 100	> 100	> 100
CCCCCC(=O)Nc1cccc(C2=NOC3(C2)C[C@@H](C(N)=O)N(C(=O)CC(c2ccccc2)c2ccccc2)C3)c1 (stereo partly drawn)	51.6 µM (inactive)	> 100	> 100	> 100
CCOC(=O)c1ccc(NC(=O)Cc2coc3cc4c(cc23)CCC4)cc1	> 100 µM (inactive)	> 100	> 100	> 100
CCCC1=C/C(=C/c2ccc(-c3ccccc3OC)o2)C(=O)O1	29.3 µM (inactive)	55.5	> 100	> 100
COc1ccc(NC(=O)C/C(C)=N/NC(=O)c2cnccn2)cc1	20.1 µM	> 100	> 100	> 100
COc1cccc(/C=N/NC(=O)NC23CC4CC(CC(C4)C2)C3)c1O	2.93 µM	46.9	> 100	26.8
O=C1c2cccc3c(N4CCCCC4)ccc(c23)C(=O)N1c1ccccn1	84.8 µM (inactive)	> 100	> 100	> 100
c1ccc(-c2n[nH]c3c2CCC3)cc1	3.73 µM	14.4	32.4	46.3
COc1ccc(NCC(=O)N/N=C/C(C)c2ccccc2)cc1 (stereo not drawn)	> 100 µM (inactive)	> 100	> 100	> 100
COc1cccc(NC(=O)C(=O)c2cn(CC(=O)N3CCOCC3)c3ccccc23)c1	> 100 µM (inactive)	> 100	> 100	> 100
CCOC(=O)c1c(C)[nH]c(C)c1C(=O)COC(=O)c1ccc(S(=O)(=O)N(CC)CC)cc1	92.6 µM (inactive)	> 100	> 100	> 100
CC1CCCN(C(=O)C2CCN(c3ncnc4c3nc3n4CCCCC3)CC2)C1 (stereo not drawn)	46.7 µM (inactive)	89.8	> 100	49.7
OC1C(O)C(O)C(O)C(O)C1O (stereo not drawn)	> 100 µM (inactive)	> 100	> 100	> 100
N#Cc1cc2c(nc1SCC(=O)Nc1sc3c(c1C#N)CCC3)CCCC2	> 100 µM (inactive)	> 100	> 100	> 100
Cc1ccc(OC(=O)COc2ccccc2)c(-n2nc3ccccc3n2)c1	> 100 µM (inactive)	> 100	> 100	> 100
O=C(COc1ccccc1)NNC(=O)c1cc2ccccc2oc1=O	15.3 µM	> 100	> 100	> 100
CN(C)C(=O)c1ccc(-n2nc(C(F)(F)F)c3c2CCCC3)cc1	> 100 µM (inactive)	> 100	> 100	> 100
CC(C)(C)NS(=O)(=O)c1ccc(NC(=O)C(Sc2ccccc2)c2ccccc2)cc1 (stereo not drawn)	> 100 µM (inactive)	> 100	> 100	> 100
S=C(NN=C1C2CC3CC(C2)CC1C3)Nc1ccccc1	45.7 µM (inactive)	48.7	54.7	51.4

Structure (SMILES)	IC50	IC50 [1] [µM]	IC90 [2] [µM]	IC90 [3] [µM]
Nc1c(C(=O)c2cccs2)sc2nsc(SCCN3CCCCC3)c12	> 100 µM (inactive)	> 100	> 100	> 100
C/C(=N\NC(=O)c1cc2c(s1)CCC(C)C2)c1ccc[nH]1 (stereo not drawn)	6.51 µM	> 100	> 100	> 100
CCC(CC)c1nnc(NC(=O)c2ccc(N3CCCCC3)c([N+](=O)[O-])c2)s1	9.31 µM	75.9	> 100	44
CC(C)OC(=O)CSc1nc(N2CCOCC2)c2c(c1C#N)CC(C)(C)OC2	> 100 µM (inactive)	> 100	> 100	> 100
CC1CCc2c(sc(NC(=O)CCCn3cnc([N+](=O)[O-])n3)c2C(N)=O)C1 (stereo not drawn)	12.8 µM	32.7	> 100	90.4
C=CCNC(=S)NC(=O)c1csc([N+](=O)[O-])c1	27.8 µM (inactive)	49	> 50	> 100
CC(=O)c1ccc(OCCCC(=O)OCC(=O)N2CCN(c3ccccc3)CC2)cc1	78.7 µM (inactive)	> 100	> 100	> 100
Cc1ccc(C)c(NC(=O)COC(=O)c2ccc(S(=O)(=O)N3CCCCC3)cc2)c1	> 100 µM (inactive)	> 100	> 100	> 100
O=c1oc(CCCO)cc2ccc(C#Cc3ccsc3)cc12	> 100 µM (inactive)	> 100	> 100	> 100
C=CCN=c1scc(-c2ccc(F)cc2)n1/N=C/c1ccccn1	33 µM	92.8	> 100	71.7
O=c1[nH]c(C2CCN(S(=O)(=O)c3ccc(S(=O)(=O)NC4CC4)cc3)CC2)nc2c1nnn2Cc1ccc(F)cc1	> 100 µM (inactive)	> 100	> 100	> 100
O=C1S/C(=C\C=C\c2ccco2)C(=O)N1c1ccccc1	14.7 µM	43.5	> 100	77.6
COc1cccc(NC(=S)Nc2cc(C)cc(C)n2)c1	6.41 µM	> 100	> 100	> 100
CCN(CC)S(=O)(=O)c1ccc(N/N=C(\C)c2ccc(OC)cc2O)nc1	1.07 µM	5.71	11.3	10.4
COc1ccc(-c2cc3cc(OC)c(OC)cc3c(C)n2)cc1	> 100 µM (inactive)	> 100	> 100	> 100
O=C(OCC(=O)N1CCN(C(=O)c2ccco2)CC1)c1cc(-c2ccco2)nc2ccccc12	99.1 µM (inactive)	> 100	> 100	> 100
COc1ccc(-c2c(C(F)(F)F)oc3cc(OCC(=O)Nc4ccccc4C(F)(F)F)ccc3c2=O)cc1OC	> 100 µM (inactive)	> 100	> 100	> 100
CC1(C)CN=C(Nc2nc3ccccc3s2)S1	29 µM	> 100	> 100	> 50
CC(=O)Nc1cccc(-n2nnc(SCC(=O)Nc3ccc(F)c(Cl)c3)n2)c1	> 100 µM (inactive)	> 100	> 100	> 100
